Measurements from patent US11135143B2, “Oral care compositions comprising tin ions” (The Procter & Gamble Company, priority 2020, dated 2021).

Key:
[1] = Solubility of tin ions (SnF2) in polyol solutions at various pH; assay type: physicochemical; conditions: for Appearance of polyol solution with stannous fluoride: every point above pH of 4; for Appearance of polyol solution with SnF2 (cloudy = formation of Sn(OH)2): pH 8-10, pH raised with NaOH
Experimental: Solubility of Tin Ions at a pH of Greater than 7
A 30% (w/w) solution was prepared for each polyol or combination of polyols was prepared using the appropriate amount of the pure polyol and deionized water. Next, 46 g of the 30% (w/w) polyol solution was placed in a 250 mL glass beaker with a stirring bar on top of a magnetic stirring apparatus. 21 g of deionized water was added to the glass beaker and the magnetic stirring apparatus was started to commence stirring of the solution. A pH electrode was connected to a pH meter (VWR Scientific, Model 9100, Radnor, Pa.) and the pH electrode (ThermoFisher Scientific, Orion 8165BNWP, Waltham, Mass.) was placed in the stirring polyol solution.
0.45 grams of a tin ion source, such as stannous fluoride, was added to the stirring polyol solution. The pH was recorded once the tin ion source was completely added. The pH of the solution was increased by dropwise addition of a 33% (w/w) solution of NaOH.
Solubility of Tin Ions at a pH of Less than 7
0.45 grams of a tin ion source, such as stannous fluoride, was added to the stirring polyol solution. The pH was recorded once the tin ion source was completely added. The pH of the solution was decreased by dropwise addition of a 33% (w/w) solution of HCl.
A solution that appeared cloudy indicated the formation of insoluble tin complexes. At a pH of greater than 7, a cloudy solution indicated the formation of Sn(OH)2. FIG. 1-6 illustrate TABLE 1 by showing the appearance of each solution described in TABLE 1.

[2] = system: Human gingival epithelial (HGE) cell; assay: Barrier protection analysis by real time cell analyzer (RTCA), impedance / Cell Index; assay type: cell-based; conditions: HGE cells
Experimental: Cell Culture Human gingival epithelial (HGE) cell was maintained in a 37° C. incubator with 5% CO2 saturation. Dulbecco's modified Eagle's medium (DMEM, Gibco) containing 10% fetal calf serum, 1% penicillin-streptomycin was used as the complete culture medium, which was changed every 2-3 days. Barrier Protection Analysis by Real Time Cell Analyzer (RTCA) The real time cell analyzer (RTCA) xCELLigence RTCA DP (ACEA Bioscience Inc., San Diego, Calif.) equipment, based on impedance measurement, was used to monitor the barrier protection of polyols. 50 μl complete culture medium was added to E-plates to obtain background readings, followed by the addition of 100 μl of the cell suspension. The E-plates containing 28000 cell/well were incubated at 37° C., 5% CO2 for 22-24 h until cells were confluent. The culture medium was changed to DMEM or DMEM with 1% of polyols, non reducing sugars or combinations and incubated at 37° C., 5% CO2 for 2 h. The barrier disruptor (capsaicin to a final concentration of 75 μM in this case) was added to wells of E-plate. Impedance as reflected by the Cell Index (CI) was recorded continuously for 16-24 h. The CI curve was normalized at the time point just before adding polyols. The normalized CI at 3 h after adding of barrier disruptor was compared to blank control to generate the percentage of barrier function % comprimisation.

[3] = pH 2-4, 30% (w/w) polyol solution diluted with water, 0.45 g stannous fluoride, pH lowered with HCl
[4] = DMEM with 1% polyol(s) for 2 h, then capsaicin 75 μM, normalized CI at 3 h after barrier disruptor compared to blank control (100%)

| Molecule | Appearance of polyol solution with stannous fluoride [1] | Appearance of polyol solution with SnF2 (cloudy = formation of insoluble tin complexes) [1, 3] | Appearance of polyol solution with SnF2 (cloudy = formation of insoluble tin complexes) ([1]; pH 4-6) | Appearance of polyol solution with SnF2 (cloudy = formation of insoluble tin complexes) ([1]; pH 6-8) | Appearance of polyol solution with SnF2 (cloudy = formation of Sn(OH)2) [1] | Barrier Function [2, 4] [%] | Barrier Function ([2]; DMEM with 1% polyol(s) for 2 h, then capsaicin 75 μM, normalized CI at 3 h after barrier disruptor compared to blank control (100%), listed as glycerin) [%] | Barrier Function ([2]; barrier disruptor capsaicin 75 μM alone, no polyol, normalized CI at 3 h compared to blank control (100%)) [%] | Barrier Function ([2]; barrier disruptor capsaicin 75 μM alone, no polyol, normalized CI at 3 h compared to blank control (100%), listed as capsaicin) [%] | Barrier Function ([2]; DMEM with 1% polyol(s) for 2 h, then capsaicin 75 μM, normalized CI at 3 h after barrier disruptor compared to blank control (100%), listed as sorbitol) [%] |
| --- | --- | --- | --- | --- | --- | --- | --- | --- | --- | --- |
| Isomalt | cloudy | clear | cloudy | cloudy | cloudy | 85 | – | – | – | – |
| OCC(O)CO [Glycerin, reference compound] | – | – | – | – | – | 44 | 44 | – | – | – |
| COc1cc(CNC(=O)CCCC/C=C/C(C)C)ccc1O [Capsaicin, capsaicin, reference compound] | – | – | – | – | – | – | – | 28 | 28 | – |

Continued, in another order:

| Appearance of polyol solution with stannous fluoride [1] | Appearance of polyol solution with SnF2 (cloudy = formation of insoluble tin complexes) [1, 3] | Appearance of polyol solution with SnF2 (cloudy = formation of insoluble tin complexes) ([1]; pH 4-6) | Appearance of polyol solution with SnF2 (cloudy = formation of insoluble tin complexes) ([1]; pH 6-8) | Appearance of polyol solution with SnF2 (cloudy = formation of Sn(OH)2) [1] | Molecule | Barrier Function [2, 4] [%] | Barrier Function ([2]; DMEM with 1% polyol(s) for 2 h, then capsaicin 75 μM, normalized CI at 3 h after barrier disruptor compared to blank control (100%), listed as glycerin) [%] | Barrier Function ([2]; barrier disruptor capsaicin 75 μM alone, no polyol, normalized CI at 3 h compared to blank control (100%)) [%] | Barrier Function ([2]; barrier disruptor capsaicin 75 μM alone, no polyol, normalized CI at 3 h compared to blank control (100%), listed as capsaicin) [%] | Barrier Function ([2]; DMEM with 1% polyol(s) for 2 h, then capsaicin 75 μM, normalized CI at 3 h after barrier disruptor compared to blank control (100%), listed as sorbitol) [%] |
| --- | --- | --- | --- | --- | --- | --- | --- | --- | --- | --- |
| cloudy | clear | cloudy | cloudy | cloudy | OC[C@H]1O[C@H](O[C@H]2O[C@H](CO)[C@@H](O)[C@H](O)[C@H]2O)[C@H](O)[C@@H](O)[C@@H]1O [Trehalose] | 102 | – | – | – | – |
| – | clear | cloudy | cloudy | clear | OC[C@@H](O)[C@@H](O)[C@H](O)[C@@H](O)CO [Sorbitol] | 46 | – | – | – | 46 |
